US20250042889A1, “3CLPRO PROTEASE INHIBITOR” (SHANGHAI QILU PHARMACEUTICAL RESEARCH AND DEVELOPMENT …, priority 2021, published 2025)

Each molecule was assayed against SARS-COV-2 3CLpro/Mpro protease (Severe acute respiratory syndrome coronavirus 2 (2019-nCoV) (SARS-CoV-2), UniProt P0DTD1) (assay: Inhibitory effect on SARS-COV-2 3CLpro/Mpro protease by fluorescence resonance energy transfer). Details: activity intervals A-D, read-out: IC50 (nM), Inhibition on SARS-CoV-2 3CLpro/Mpro protease.
Format: biochemical
CNc1cncc(C(=O)N2C[C@H](Nc3c(C(=O)N4CCCCC4)cc(Br)cc3[N+](=O)[O-])C(F)(F)C2)c1 [Example 168] gave an IC50 of 10 to 50 nM.
In the case of CC1(O)CCN(C(=O)c2cc(Br)cc(C(F)(F)F)c2N[C@@H]2CCCC[C@@H]2NC(=O)c2cncc3cc(Cl)ccc23)CC1 [Example 169], the IC50 is reported as 10 to 50 nM.
In the case of CNc1cncc(C(=O)N2CC(Nc3c(C(=O)N4CCN(CC5CC5)CC4)cc(Br)cc3[N+](=O)[O-])C(F)(F)C2)c1 (centres unmarked) [Example 170], the IC50 is reported as 10 to 50 nM.
With CNc1cncc(C(=O)N2CC(Nc3c(C(=O)N4CCC5(CCCCC5)CC4)cc(Br)cc3[N+](=O)[O-])C(C)(C)C2)c1 (centres unmarked) [Example 171] the IC50 was 10 to 50 nM.
For CNc1cncc(C(=O)N2CC(Nc3c(C(=O)N4CCN(C5CCCCC5)CC4)cc(Br)cc3[N+](=O)[O-])C(F)(F)C2)c1 (centres unmarked) [Example 172], the IC50 was 10 to 50 nM.
For CNc1cncc(C(=O)N2CC(Nc3c(C(=O)N4CCC[C@H](C)C4)cc(Br)cc3[N+](=O)[O-])C(C)(C)C2)c1 (some centres unmarked) [Example 173], the IC50 was 10 to 50 nM.
CNc1cncc(C(=O)N2CC(Nc3c(C(=O)N4CCC[C@@H](C)C4)cc(Br)cc3[N+](=O)[O-])C(C)(C)C2)c1 (some centres unmarked) [Example 174] showed an IC50 of 10 to 50 nM.
With CNc1cncc(C(=O)N2CC(Nc3c(C(=O)N4CCC(C)(C)CC4)cc(Br)cc3[N+](=O)[O-])C(C)(C)C2)c1 (centres unmarked) [Example 175] the IC50 was 10 to 50 nM.
CNc1cncc(C(=O)N2CC(Nc3c(C(=O)N4CCC5(CCCC5)CC4)cc(Br)cc3[N+](=O)[O-])C(C)(C)C2)c1 (centres unmarked) [Example 176] gave an IC50 of 10 to 50 nM.
CNc1cncc(C(=O)N2CC(Nc3c(C(=O)N4CCC5(CCC5)CC4)cc(Br)cc3[N+](=O)[O-])C(C)(C)C2)c1 (centres unmarked) [Example 177] was tested, and the IC50 was 10 to 50 nM.
Work on CNc1cncc(C(=O)N2CC(Nc3c(C(=O)N4C[C@@H](C)N(CCOC)[C@@H](C)C4)cc(Br)cc3[N+](=O)[O-])C(F)(F)C2)c1 (some centres unmarked) [Example 178] yielded an IC50 of 50 to 100 nM.
With CC1CC(C(=O)N2CCC[C@@H](Nc3c(C(=O)N4C[C@@H](C)O[C@@H](C)C4)cc(Br)cc3[N+](=O)[O-])C2)CC(=O)N1 (some centres unmarked) [Example 179] the IC50 was 50 to 100 nM.
CNc1cncc(C(=O)N2CC(Nc3c(C(=O)N4C[C@H](C)C[C@H](C)C4)cc(Br)cc3[N+](=O)[O-])C(C)(C)C2)c1 (some centres unmarked) [Example 180] was tested, and the IC50 was 50 to 100 nM.
COCCN1CCN(C(=O)c2cc(Br)cc([N+](=O)[O-])c2NC2CN(C(=O)c3cncc(I)c3)CC2(F)F)CC1 (centres unmarked) [Example 181] gave an IC50 of 10 to 50 nM.
In the case of CNc1cncc(C(=O)N2C[C@H](Nc3c(C(=O)N4C[C@@H](C)O[C@@H](C)C4)cc(Br)cc3[N+](=O)[O-])C(F)(F)C2)c1 [Example 182], the IC50 is reported as 10 to 50 nM.
O=C(c1cncc(Br)c1)N1C[C@H](Nc2c(C(=O)N3CCC(F)(F)CC3)cc(Br)cc2[N+](=O)[O-])C(F)(F)C1 [Example 183] was tested, and the IC50 was 10 to 50 nM.
O=C(N[C@H]1CCOC[C@H]1Nc1c(C(=O)N2CCCCC2)cc(Br)cc1[N+](=O)[O-])c1cncc2cc(Cl)ccc12 [Example 184] was tested, and the IC50 was less than 10 nM.
O=C(N[C@H]1CCOC[C@H]1Nc1c(C(=O)N2CCC(F)(F)CC2)cc(Br)cc1[N+](=O)[O-])c1cncc2cc(Cl)ccc12 [Example 185] showed an IC50 of 10 to 50 nM.
CNc1cncc(C(=O)N2CC(Nc3c(C(=O)N4CCCCC4)cc(Br)cc3[N+](=O)[O-])C(C)(C)C2)c1 (centres unmarked) [Example 186] was tested, and the IC50 was 10 to 50 nM.
CNc1cncc(C(=O)N2C[C@H](Nc3c(C(=O)N4C[C@@H](C)O[C@H](C)C4)cc(Br)cc3[N+](=O)[O-])C(C)(C)C2)c1 [Example 187] gave an IC50 of 10 to 50 nM.
In the case of CNc1cncc(C(=O)N2C[C@H](Nc3c(C(=O)N4C[C@H](C)O[C@@H](C)C4)cc(Br)cc3[N+](=O)[O-])C(C)(C)C2)c1 [Example 189], the IC50 is reported as 10 to 50 nM.
With COCCN1CCN(C(=O)c2cc(Br)cc([N+](=O)[O-])c2N[C@H]2CN(C(=O)c3cncc(I)c3)CC2(C)C)CC1 [Example 190] the IC50 was 10 to 50 nM.
For CNc1cncc(C(=O)N2C[C@H](Nc3c(C(=O)N4CCN(CCOC)CC4)cc(Br)cc3[N+](=O)[O-])C(C)(C)C2)c1 [Example 191], the IC50 was 10 to 50 nM.
With O=C(c1cncc(I)c1)N1C[C@H](Nc2c(C(=O)N3CCC(F)(F)CC3)cc(Br)cc2[N+](=O)[O-])C(F)(F)C1 [Example 192] the IC50 was 10 to 50 nM.
O=C(N[C@H]1COCC[C@H]1Nc1c(C(=O)N2CCCCC2)cc(Br)cc1[N+](=O)[O-])c1cncc2cc(Cl)ccc12 [Example 193] gave an IC50 of 10 to 50 nM.
Molecule O=C(N[C@H]1COCC[C@H]1Nc1c(C(=O)N2CCCCC2)cc(Br)cc1[N+](=O)[O-])c1cncc2ccccc12 [Example 194] has an IC50 of 10 to 50 nM.
For COCCN1[C@H](C)CN(C(=O)c2cc(Br)cc([N+](=O)[O-])c2N[C@@H]2COCC[C@@H]2NC(=O)c2cncc3ccccc23)C[C@@H]1C [Example 195], the IC50 was 10 to 50 nM.
CNc1cncc(C(=O)N[C@H]2CCCC[C@H]2Nc2c(C(=O)N3CCCCC3)cc(Br)cc2[N+](=O)[O-])c1 [Example 196] was tested, and the IC50 was 10 to 50 nM.
O=C(c1cncc(Br)c1)N1C[C@H](Nc2c(C(=O)N3CCCCC3)cc(Br)cc2[N+](=O)[O-])C(F)(F)C1 [Example 197] showed an IC50 of 10 to 50 nM.
CNc1cncc(C(=O)N[C@H]2CCCC[C@H]2Nc2c(C(=O)N3C[C@@H](C)O[C@@H](C)C3)cc(Br)cc2[N+](=O)[O-])c1 [Example 198] was tested, and the IC50 was 10 to 50 nM.
Molecule CNc1cncc(C(=O)N2C[C@H](Nc3c(C(=O)N4C[C@@H](C)O[C@H](C)C4)cc(Br)cc3[N+](=O)[O-])C(F)(F)C2)c1 [Example 199] has an IC50 of 50 to 100 nM.
For CNc1cncc(C(=O)N2CCC[C@@H](Nc3c(C(=O)N4CCOCC4)cc(Br)cc3[N+](=O)[O-])C2)c1 [Example 200], the IC50 was 10 to 50 nM.
With CNc1cncc(C(=O)N[C@H]2CCOC[C@H]2Nc2c(C(=O)N3CCCCC3)cc(Br)cc2[N+](=O)[O-])c1 [Example 201] the IC50 was 10 to 50 nM.
For CNc1cncc(C(=O)N2C[C@H](Nc3c(C(=O)N4C[C@H](C)C[C@@H](C)C4)cc(Br)cc3[N+](=O)[O-])C(F)(F)C2)c1 [Example 202], the IC50 was 10 to 50 nM.
With C[C@@H]1CN(C(=O)c2cc(Br)cc([N+](=O)[O-])c2N[C@H]2CN(C(=O)c3cncc(Br)c3)CC2(F)F)C[C@H](C)O1 [Example 203] the IC50 was 10 to 50 nM.
O=C1CC(C(=O)N2CCC[C@@H](Nc3c(C(=O)N4CCCCC4)cc(Br)cc3[N+](=O)[O-])C2)c2ccccc2N1 (some centres unmarked) [Example 204] was tested, and the IC50 was 10 to 50 nM.
O=C(N[C@H]1CCOC[C@H]1Nc1c(C(=O)N2CCCCC2)cc(Br)cc1[N+](=O)[O-])c1cncc2ccccc12 [Example 205] gave an IC50 of less than 10 nM.
O=C(N[C@H]1COCC[C@H]1Nc1c(C(=O)N2CCC(F)(F)CC2)cc(Br)cc1[N+](=O)[O-])c1cncc2cc(Cl)ccc12 [Example 206] gave an IC50 of 50 to 100 nM.
In the case of O=C(N[C@H]1CCCC[C@H]1Nc1c(C(=O)N2C[C@@H](O)C[C@@H](NC(=O)C(F)(F)F)C2)cc(Br)cc1C(F)(F)F)c1cncc2cc(Cl)ccc12 [Example 207], the IC50 is reported as 10 to 50 nM.
With COCCN1CCN(C(=O)c2cc(Br)cc([N+](=O)[O-])c2N[C@H]2CN(C(=O)c3cncc(I)c3)CC2(F)F)CC1 [Example 208] the IC50 was 10 to 50 nM.
Molecule O=C(c1cncc(I)c1)N1C[C@H](Nc2c(C(=O)N3CCCCC3)cc(Br)cc2[N+](=O)[O-])C(F)(F)C1 [Example 209] has an IC50 of 10 to 50 nM.
C[C@@H]1CN(C(=O)c2cc(Br)cc(C(F)(F)F)c2N[C@@H]2CCOC[C@@H]2NC(=O)c2cncc3ccccc23)C[C@H](C)O1 [Example 210] was tested, and the IC50 was 10 to 50 nM.
COCCN1[C@H](C)CN(C(=O)c2cc(Br)cc([N+](=O)[O-])c2N[C@@H]2CCOC[C@@H]2NC(=O)c2cncc3ccccc23)C[C@@H]1C [Example 211] showed an IC50 of 10 to 50 nM.
In the case of CNc1cncc(C(=O)N2CCC[C@@H](Nc3c(C(=O)N4C[C@@H](C)O[C@H](C)C4)cc(Br)cc3[N+](=O)[O-])C2)c1 [Example 212], the IC50 is reported as 10 to 50 nM.
In the case of CNc1cncc(C(=O)N2CCC[C@@H](Nc3c(C(=O)N4C[C@H](C)O[C@@H](C)C4)cc(Br)cc3[N+](=O)[O-])C2)c1 [Example 213], the IC50 is reported as 10 to 50 nM.
C[C@@H]1CN(C(=O)c2cc(Br)cc([N+](=O)[O-])c2N[C@@H]2COCC[C@@H]2NC(=O)c2cncc3ccccc23)C[C@H](C)O1 [Example 214] showed an IC50 of 10 to 50 nM.
COCCN1CCN(C(=O)c2cc(Br)cc([N+](=O)[O-])c2N[C@@H]2COCC[C@@H]2NC(=O)c2cncc3cc(Cl)ccc23)CC1 [Example 215] was tested, and the IC50 was 10 to 50 nM.
For CC(=O)Nc1cncc(C(=O)N2CCC[C@@H](Nc3c(C(=O)N4CCCCC4)cc(Br)cc3[N+](=O)[O-])C2)c1 [Example 216], the IC50 was 10 to 50 nM.
With CNc1cncc(C(=O)N[C@H]2CCCC[C@H]2Nc2c(C(=O)N3C[C@H](C)O[C@@H](C)C3)cc(Br)cc2[N+](=O)[O-])c1 [Example 217] the IC50 was 50 to 100 nM.
COCCN1CCN(C(=O)c2cc(Br)cc([N+](=O)[O-])c2N[C@@H]2COCC[C@@H]2NC(=O)c2cncc3ccccc23)CC1 [Example 218] gave an IC50 of 10 to 50 nM.
Molecule CNc1cncc(C(=O)N2CCC[C@@H](Nc3c(C(=O)N4CCO[C@@H](C)C4)cc(Br)cc3[N+](=O)[O-])C2)c1 [Example 219] has an IC50 of 10 to 50 nM.
C[C@@H]1CN(C(=O)c2cc(Br)cc([N+](=O)[O-])c2N[C@H]2CN(C(=O)c3cncc(Br)c3)CC2(C)C)C[C@@H](C)O1 [Example 220] gave an IC50 of 50 to 100 nM.
CNc1cncc(C(=O)N[C@H]2CCOC[C@H]2Nc2c(C(=O)N3CCN(CCOC)CC3)cc(Br)cc2[N+](=O)[O-])c1 [Example 221] gave an IC50 of 10 to 50 nM.
CNc1cncc(C(=O)N[C@H]2CCCC[C@H]2Nc2c(C(=O)N3CCN(CCOC)CC3)cc(Br)cc2[N+](=O)[O-])c1 [Example 222] showed an IC50 of 10 to 50 nM.
For CNc1cncc(C(=O)N[C@H]2CCCC[C@H]2Nc2c(C(=O)N3C[C@@H](C)O[C@H](C)C3)cc(Br)cc2[N+](=O)[O-])c1 [Example 223], the IC50 was 10 to 50 nM.
Molecule CNc1cncc(C(=O)N[C@H]2CCOC[C@H]2Nc2c(C(=O)N3C[C@H](C)O[C@@H](C)C3)cc(Br)cc2[N+](=O)[O-])c1 [Example 224] has an IC50 of 10 to 50 nM.
Work on C[C@H]1CN(C(=O)c2cc(Br)cc([N+](=O)[O-])c2N[C@H]2CN(C(=O)c3cncc(Br)c3)CC2(C)C)C[C@H](C)O1 [Example 225] yielded an IC50 of less than 10 nM.
For CNc1cncc(C(=O)N[C@H]2CCOC[C@H]2Nc2c(C(=O)N3CCC[C@@H](C)C3)cc(Br)cc2[N+](=O)[O-])c1 [Example 226], the IC50 was 10 to 50 nM.
COCCN1CCN(C(=O)c2cc(Br)cc([N+](=O)[O-])c2N[C@@H]2CCOC[C@@H]2NC(=O)c2cncc3ccccc23)CC1 [Example 227] gave an IC50 of 10 to 50 nM.
